Laboratory results: publication PMC3214022, “Plasmodium falciparum Parasites Are Killed by a Transition State Analogue of Purine Nucleoside Phosphorylase in a Primate Animal Model” (PLoS ONE, 2011)

Assay: Weights, CBC, blood chemistry and signs of toxicity, Table S1 sheet PD-2 (infected Aotus, twice a day for seven days)
Format: in vivo, Aotus lemurinus lemurinus
Conditions: oral 10 mg/kg twice a day/7 days
Description: Laboratory bred Aotus lemurinus lemurinus monkeys (0.75–0.89 kg) were maintained as described. […] Blood samples were collected before the treatment started (t = 0), 0.05 h, 0.5 h, 1 h, 2 h, 6 h, 24 h, 48 h, and 6, 12 and 18 days after the first dose from each monkey and processed as described below. Pharmacokinetic parameters were calculated using PKSolver. For efficacy studies, Aotus monkeys were inoculated intravenously with 5×10^6 parasites of the FVO strain of P. falciparum in an approved treatment protocol. […] Parasitaemia was determined by Giemsa-stained thick blood smears prepared daily from the marginal ear vein [41]. Blood samples were collected from each monkey and transferred to tubes containing lithium heparin, centrifuged and both plasma and blood cells were frozen at −80 °C until analysis. Animals received a physical examination and blood chemistry profiles were monitored after treatment as described previously. Any monkey not responding appropriately to treatment was cured of its infection with mefloquine (40 mg kg^−1). […] The day of clearance is defined as the first of three consecutive days in which the thick blood films are parasite negative. The day of recrudescence is the first of three consecutive days of positive thick blood films after a period of clearance. Suppression is defined as a transient decrease in the parasite count post-treatment without clearance.

## Nc1nc2c(CN3CC(O)C(CO)C3)c[nH]c2c(=O)[nH]1 (stereo not drawn) [BCX4945, 4′-deaza-1′-aza-2′-deoxy-1′-(9-methylene)-Immucillin-G]
26027 Male (ITM3), day 15
  WEIGHT: 890 g
26027 Male (ITM3), day 18
  Blood Urea Nitrogen: 20.6 mg/dL
  Creatine: 0.5 mg/dL
  Erythrocytes: 4.74e+06 µL⁻¹
  Glutamate Pyruvate Transaminase: 27.5 U/L
  Granulocytes (%): 37%
  Granulocytes (x 103/ul): 3 x 103/ul
  Hematocrit: 39.9%
  Hemoglobin: 14.1 g/dL
  Leucocytes: 8100 µL⁻¹
  Lymphocytes (%): 58.1%
  Lymphocytes (x 103/ul): 4.7 x 103/ul
  Mean Corpuscular Hemoglobin: 29.9 pg
  Mean Corpuscular Volume: 84.3 fL
  Mean Hemoglobin Content: 35.4 g/dL
  Mean Platelet Volume: 11.7 fL
  Monocytes (%): 4.9%
  Monocytes (x 103/ul): 0.4 x 103/ul
  Platelets: 208000 µL⁻¹
  Red Cell Distribution Width: 17.7%
  Reticulocytes: 1.9%
  WEIGHT: 900 g
26027 Male (ITM3), day 25
  Erythrocytes: 4.04e+06 µL⁻¹
  Granulocytes (%): 17.2%
  Granulocytes (x 103/ul): 2.5 x 103/ul
  Hematocrit: 35.7%
  Hemoglobin: 12.2 g/dL
  Leucocytes: 14500 µL⁻¹
  Lymphocytes (%): 74.8%
  Lymphocytes (x 103/ul): 10.8 x 103/ul
  Mean Corpuscular Hemoglobin: 30.1 pg
  Mean Corpuscular Volume: 88.4 fL
  Mean Hemoglobin Content: 34 g/dL
  Mean Platelet Volume: 13.3 fL
  Monocytes (%): 8%
  Monocytes (x 103/ul): 1.2 x 103/ul
  Platelets: 118000 µL⁻¹
  Red Cell Distribution Width: 17.3%
  Reticulocytes: 3.1%
  WEIGHT: 888 g
26027 Male (ITM3), day -10
  Blood Urea Nitrogen: 18.35 mg/dL
  Creatine: 0.5 mg/dL
  Erythrocytes: 5.73e+06 µL⁻¹
  Glutamate Pyruvate Transaminase: 23.9 U/L
  Granulocytes (%): 15.9%
  Granulocytes (x 103/ul): 1.6 x 103/ul
  Hematocrit: 46.1%
  Hemoglobin: 17.0 g/dL
  Leucocytes: 10200 µL⁻¹
  Lymphocytes (%): 78%
  Lymphocytes (x 103/ul): 8 x 103/ul
  Mean Corpuscular Hemoglobin: 29.6 pg
  Mean Corpuscular Volume: 80.5 fL
  Mean Hemoglobin Content: 36.8 g/dL
  Mean Platelet Volume: 11.9 fL
  Monocytes (%): 6.1%
  Monocytes (x 103/ul): 0.6 x 103/ul
  Platelets: 253000 µL⁻¹
  Red Cell Distribution Width: 11.7%
  Reticulocytes: 1.1%
  WEIGHT: 895 g
26047 Female (ITM1), day 8
  Blood Urea Nitrogen: 18.65 mg/dL
  Creatine: 0.539 mg/dL
  Erythrocytes: 4.63e+06 µL⁻¹
  Glutamate Pyruvate Transaminase: 13.2 U/L
  Granulocytes (%): 10%
  Granulocytes (x 103/ul): 1.3 x 103/ul
  Hematocrit: 36.7%
  Hemoglobin: 13.2 g/dL
  Leucocytes: 12900 µL⁻¹
  Lymphocytes (%): 74.5%
  Lymphocytes (x 103/ul): 9.6 x 103/ul
  Mean Corpuscular Hemoglobin: 28.5 pg
  Mean Corpuscular Volume: 79.3 fL
  Mean Hemoglobin Content: 35.9 g/dL
  Mean Platelet Volume: 9.7 fL
  Monocytes (%): 15.5%
  Monocytes (x 103/ul): 2 x 103/ul
  Platelets: 297000 µL⁻¹
  Red Cell Distribution Width: 12.5%
  Reticulocytes: 2.8%
  WEIGHT: 814 g
26047 Female (ITM1), day 12
  Blood Urea Nitrogen: 10.55 mg/dL
  Creatine: 0.5 mg/dL
  Erythrocytes: 4.11e+06 µL⁻¹
  Glutamate Pyruvate Transaminase: 27.3 U/L
  Granulocytes (%): 21.3%
  Granulocytes (x 103/ul): 3.6 x 103/ul
  Hematocrit: 32.7%
  Hemoglobin: 11.6 g/dL
  Leucocytes: 16800 µL⁻¹
  Lymphocytes (%): 68.4%
  Lymphocytes (x 103/ul): 11.5 x 103/ul
  Mean Corpuscular Hemoglobin: 28.3 pg
  Mean Corpuscular Volume: 79.5 fL
  Mean Hemoglobin Content: 35.5 g/dL
  Mean Platelet Volume: 9.9 fL
  Monocytes (%): 10.3%
  Monocytes (x 103/ul): 1.7 x 103/ul
  Platelets: 338000 µL⁻¹
  Red Cell Distribution Width: 13.6%
  Reticulocytes: 2.2%
  WEIGHT: 845 g
26047 Female (ITM1), day 15
  Blood Urea Nitrogen: 11.4 mg/dL
  Creatine: 0.638 mg/dL
  Erythrocytes: 4.51e+06 µL⁻¹
  Glutamate Pyruvate Transaminase: 21.4 U/L
  Granulocytes (%): 7.5%
  Granulocytes (x 103/ul): 1 x 103/ul
  Hematocrit: 36.3%
  Hemoglobin: 12.9 g/dL
  Leucocytes: 13100 µL⁻¹
  Lymphocytes (%): 81.3%
  Lymphocytes (x 103/ul): 10.7 x 103/ul
  Mean Corpuscular Hemoglobin: 28.7 pg
  Mean Corpuscular Volume: 80.5 fL
  Mean Hemoglobin Content: 35.6 g/dL
  Mean Platelet Volume: 10.4 fL
  Monocytes (x 103/ul): 1.5 x 103/ul
  Platelets: 164000 µL⁻¹
  Red Cell Distribution Width: 17.5%
  Reticulocytes: 4.2%
  WEIGHT: 839 g
26047 Female (ITM1), day 18
  Blood Urea Nitrogen: 16.4 mg/dL
  Creatine: 0.5 mg/dL
  Erythrocytes: 4.39e+06 µL⁻¹
  Glutamate Pyruvate Transaminase: 15.3 U/L
  Granulocytes (%): 7.8%
  Granulocytes (x 103/ul): 1.7 x 103/ul
  Hematocrit: 35.7%
  Hemoglobin: 12.3 g/dL
  Leucocytes: 21900 µL⁻¹
  Lymphocytes (%): 82.9%
  Lymphocytes (x 103/ul): 18.2 x 103/ul
  Mean Corpuscular Hemoglobin: 28 pg
  Mean Corpuscular Volume: 81.2 fL
  Mean Hemoglobin Content: 34.4 g/dL
  Mean Platelet Volume: 12.4 fL
  Monocytes (%): 9.3%
  Monocytes (x 103/ul): 2 x 103/ul
  Platelets: 115000 µL⁻¹
  Red Cell Distribution Width: 16.7%
  Reticulocytes: 3.1%
  WEIGHT: 860 g
26047 Female (ITM1), day 25
  Erythrocytes: 4.98e+06 µL⁻¹
  Granulocytes (%): 4.7%
  Granulocytes (x 103/ul): 0.8 x 103/ul
  Hematocrit: 40.8%
  Hemoglobin: 13.7 g/dL
  Leucocytes: 16900 µL⁻¹
  Lymphocytes (%): 90%
  Lymphocytes (x 103/ul): 15.2 x 103/ul
  Mean Corpuscular Hemoglobin: 27.4 pg
  Mean Corpuscular Volume: 81.8 fL
  Mean Hemoglobin Content: 33.6 g/dL
  Mean Platelet Volume: 11.8 fL
  Monocytes (%): 5.3%
  Monocytes (x 103/ul): 0.9 x 103/ul
  Platelets: 158000 µL⁻¹
  Red Cell Distribution Width: 17.4%
  Reticulocytes: 1.9%
  WEIGHT: 843 g
26047 Female (ITM1), day -10
  Blood Urea Nitrogen: 15.35 mg/dL
  Creatine: 0.531 mg/dL
  Erythrocytes: 6.12e+06 µL⁻¹
  Glutamate Pyruvate Transaminase: 20.1 U/L
  Granulocytes (%): 6.5%
  Granulocytes (x 103/ul): 1.5 x 103/ul
  Hematocrit: 47.5%
  Hemoglobin: 17.3 g/dL
  Leucocytes: 23800 µL⁻¹
  Lymphocytes (%): 87.8%
  Lymphocytes (x 103/ul): 20.9 x 103/ul
  Mean Corpuscular Hemoglobin: 28.3 pg
  Mean Corpuscular Volume: 77.6 fL
  Mean Hemoglobin Content: 36.4 g/dL
  Mean Platelet Volume: 11 fL
  Monocytes (%): 5.7%
  Monocytes (x 103/ul): 1.4 x 103/ul
  Platelets: 266000 µL⁻¹
  Red Cell Distribution Width: 11%
  Reticulocytes: 2.1%
  WEIGHT: 824 g
